These results are taken from patent publication US20250163038A1, “CBL-B MODULATORS AND USES THEREOF” (Nimbus Clio, Inc., priority 2021, published 2025).

Test [1] has as its system Jurkat (clone E6-1) cells with NFAT luciferase reporter. The test is described as follows: Jurkat reporter assay (NFAT Luciferase). Format: cell-based. As to conditions: Homo sapiens; Jurkat NFAT luciferase reporter cells, anti-CD3 stimulation, 6 hr; read-out: Jurkat NFAT EC50. Background: In a reporter assay the amount or activity of a reporter protein is the signal.
In test [2] the target is Recombinant human Cbl-b (aa 36-427) (Homo sapiens, UniProt Q13191). In words: Cbl-b Biochemical Assay (TR-FRET).
The target in test [3] is T1, Recombinant human c-Cbl (aa 47-435) (Homo sapiens, UniProt P22681).
T1 sequence (P22681 47-435): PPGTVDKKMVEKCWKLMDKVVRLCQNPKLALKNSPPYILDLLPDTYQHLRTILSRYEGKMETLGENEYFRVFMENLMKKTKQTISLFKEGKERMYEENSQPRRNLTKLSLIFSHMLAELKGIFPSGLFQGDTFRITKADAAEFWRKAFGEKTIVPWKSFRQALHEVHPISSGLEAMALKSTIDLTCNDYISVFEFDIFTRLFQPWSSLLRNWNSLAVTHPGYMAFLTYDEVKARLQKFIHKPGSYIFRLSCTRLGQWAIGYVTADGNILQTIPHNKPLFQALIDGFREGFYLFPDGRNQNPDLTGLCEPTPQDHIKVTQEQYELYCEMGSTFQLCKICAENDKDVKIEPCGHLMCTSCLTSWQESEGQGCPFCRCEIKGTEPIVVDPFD
In words: c-Cbl Biochemical Assay (TR-FRET). (In general: Time-resolved FRET reads energy transfer from a long-lived donor to a nearby acceptor.)

Setting [4] is: hc-Cbl Biochemical Assay (TR-FRET), read-out: TR-FRET hcCbl IC50.

Read-outs that look alike come from different tables or passages of the source.

Chain of Recombinant human Cbl-b (aa 36-427) (Q13191 36-427): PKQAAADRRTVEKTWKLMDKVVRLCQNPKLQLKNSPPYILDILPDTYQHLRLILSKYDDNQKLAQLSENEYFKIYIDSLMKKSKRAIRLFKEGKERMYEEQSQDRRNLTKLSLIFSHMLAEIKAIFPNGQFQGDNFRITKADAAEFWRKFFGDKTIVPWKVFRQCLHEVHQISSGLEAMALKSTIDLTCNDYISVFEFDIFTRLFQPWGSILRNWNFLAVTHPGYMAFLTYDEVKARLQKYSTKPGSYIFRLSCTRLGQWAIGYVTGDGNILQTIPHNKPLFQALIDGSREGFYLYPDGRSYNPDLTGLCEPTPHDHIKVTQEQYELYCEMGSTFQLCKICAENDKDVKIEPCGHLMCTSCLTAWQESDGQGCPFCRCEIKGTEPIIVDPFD

Usually EC50 stands for the concentration at which the effect is half-maximal. One may read the IC50 as the concentration needed to halve the response being measured. For `COCC(C)(C)NCc1cc(C)c2oc(-c3cc(-c4ccc(F)cc4-c4nncn4C)cc(C4CC4)n3)nc2c1` [AGJ-1, [(2-{6-Cyclopropyl-4-[4-fluoro-2-(4-methyl-1,2,4-triazol-3-yl)phenyl]pyridin-2-yl}-7-methyl-1,3-benzoxazol-5-yl)methyl](1-methoxy-2-methylpropan-2-yl)amine], the EC50 in test [1] was in the range of 200 to 1000 nM. For the same compound, the IC50 in test [2] (read-out: TR-FRET hCbl-b IC50) is under 200 nM; in test [3] (setting [4]) it was 1000 to 10000 nM.

As for `Cn1cnnc1-c1cc(C#N)ccc1-c1cc(-c2nc3cc(CNCC4CCC4)cc(F)c3o2)nc(C2CC2)c1` [AHE-2, 4-[2-(5-{[(cyclobutylmethyl)amino]methyl}-7-fluoro-1,3-benzoxazol-2-yl)-6-cyclopropylpyridin-4-yl]-3-(4-methyl-1,2,4-triazol-3-yl) benzonitrile], the concentration for a half-maximal effect (EC50) in test [1] is under 200 nM. Besides, the IC50 in test [2] (read-out: TR-FRET hCbl-b IC50) and in test [3] (setting [4]) was under 200 nM throughout.

For the compound `Cc1cc(CNCC2CCC2)cc2nc(-c3cccc(-c4ccc(F)cc4-c4nncn4C)c3)oc12` [GU-1, 1-Cyclobutyl-N-((2-(4′-fluoro-2′-(4-methyl-4H-1,2,4-triazol-3-yl)-[1,1′-biphenyl]-3-yl)-7-methylbenzo[d]oxazol-5-yl)methyl)methanamine], in test [1], the EC50 was under 200 nM. The IC50 in test [2] (read-out: TR-FRET hCbl-b IC50) and in test [3] (setting [4]) was under 200 nM each time.

As to `Cn1cnnc1-c1cc(F)ccc1-c1cc(-c2nc3cc(CNCC4(O)CCC4)c(F)c(F)c3o2)nc(C2CC2)c1` [AGA-1, 1-({[(2-{6-Cyclopropyl-4-[4-fluoro-2-(4-methyl-1,2,4-triazol-3-yl)phenyl]pyridin-2-yl}-6,7-difluoro-1,3-benzoxazol-5-yl)methyl]amino}methyl)cyclobutan-1-ol], the EC50 in test [1] is under 200 nM. Moreover, the IC50 in test [2] (read-out: TR-FRET hCbl-b IC50) and in test [3] (setting [4]) was under 200 nM each time.

As for `COc1cc(CN[C@@H]2CCC[C@@H]2O)cc2nc(-c3cccc(-c4ccc(F)cc4-c4nncn4C)c3)oc12` [DX-2, (1S,2R)-2-(((2-(4′-Fluoro-2′-(4-methyl-4H-1,2,4-triazol-3-yl)-[1,1′-biphenyl]-3-yl)-7-methoxybenzo[d]oxazol-5-yl)methyl)amino)cyclopentan-1-ol], the half-maximal effective concentration (EC50) in test [1] is under 200 nM. Further, the half-inhibitory concentration (IC50) in test [2] (read-out: TR-FRET hCbl-b IC50) and in test [3] (setting [4]) was under 200 nM in each case.

Take `Cn1cnnc1-c1cc(F)ccc1-c1cc(-c2nc3cc(CNCC4(O)CCC4)cc(C(F)(F)F)c3o2)nc(C2CC2)c1` [ADR-1, 1-((((2-(6-Cyclopropyl-4-(4-fluoro-2-(4-methyl-4H-1,2,4-triazol-3-yl)phenyl)pyridin-2-yl)-7-(trifluoromethyl)benzo[d]oxazol-5-yl)methyl)amino)methyl)cyclobutan-1-ol]: the EC50 in test [1] is under 200 nM. The IC50 in test [2] (read-out: TR-FRET hCbl-b IC50) and in test [3] (setting [4]) was under 200 nM throughout.

`Cn1cnnc1-c1cc(F)ccc1-c1cccc(-c2nc3cc(CNCC4(O)CCC4)c(F)c(F)c3o2)c1` [IW-1, 1-((((6,7-Difluoro-2-(4′-fluoro-2′-(4-methyl-4H-1,2,4-triazol-3-yl)-[1,1′-biphenyl]-3-yl)benzo[d]oxazol-5-yl)methyl)amino)methyl)cyclobutan-1-ol]: the EC50 in test [1] is under 200 nM. Further, the IC50 in test [2] (read-out: TR-FRET hCbl-b IC50) and in test [3] (setting [4]) was under 200 nM throughout.

Consider `COC1(CNCc2cc(C(F)(F)F)c3oc(-c4cccc(-c5ccc(F)cc5-c5nncn5C)c4)nc3c2)CCC1` [DE-2, 1-(2-(4′-Fluoro-2′-(4-methyl-4H-1,2,4-triazol-3-yl)-[1,1′-biphenyl]-3-yl)-7-(trifluoromethyl)benzo[d]oxazol-5-yl)-N-((1-methoxycyclobutyl)methyl)methanamine], for which the EC50 in test [1] was in the range of 200 to 1000 nM. Further, the IC50 in test [2] (read-out: TR-FRET hCbl-b IC50) and in test [3] (setting [4]) was under 200 nM throughout.

For `Cn1cnnc1-c1cc(F)ccc1-c1cc(-c2nc3cc(CN[C@@H]4CCC[C@@]4(C)O)cc(F)c3o2)nc(C2CC2)c1` [AFM-1, (1R,2R)-2-(((2-(6-Cyclopropyl-4-(4-fluoro-2-(4-methyl-4H-1,2,4-triazol-3-yl)phenyl)pyridin-2-yl)-7-fluorobenzo[d]oxazol-5-yl)methyl)amino)-1-methylcyclopentan-1-ol], the EC50 in test [1] was in the range of 1000 to 10000 nM. The IC50 is under 200 nM in test [2] and 200 to 1000 nM in test [3].

Take `COc1cc(CN[C@@H]2CCC[C@@H]2O)cc2nc(-c3cc(-c4ccc(F)cc4-c4nncn4C)cc(C4CC4)n3)oc12` [AEY-2]: in test [1], the EC50 was under 200 nM. Besides, the IC50 in test [2] (read-out: TR-FRET hCbl-b IC50) and in test [3] (setting [4]) was under 200 nM in each case.

Regarding `Cn1cnnc1-c1cc(F)ccc1-c1cccc(-c2nc3cc(CNCC4CC4)cc(C(F)(F)F)c3o2)c1` [FB-2, 1-Cyclopropyl-N-((2-(4′-fluoro-2′-(4-methyl-4H-1,2,4-triazol-3-yl)-[1,1′-biphenyl]-3-yl)-7-(trifluoromethyl)benzo[d]oxazol-5-yl)methyl)methanamine], in test [1], the EC50 was under 200 nM. Further, the IC50 in test [2] (read-out: TR-FRET hCbl-b IC50) and in test [3] (setting [4]) was under 200 nM in each case.

With `CO[C@@H](CO)c1cc(C(F)(F)F)c2oc(-c3cccc(-c4ccc(F)cc4-c4nncn4C)c3)nc2c1` (single isomer, unassigned) [EG-3], the EC50 in test [1] was 1000 to 10000 nM. In addition, the half-maximal inhibitory concentration (IC50) in test [2] (read-out: TR-FRET hCbl-b IC50) was under 200 nM; in test [3] (setting [4]), 200 to 1000 nM.

In the case of `COC[C@@H](C)NCc1cc(C(F)(F)F)c2oc(-c3cccc(-c4ccc(F)cc4-c4nncn4C)c3)nc2c1` [EN-2, (R)—N-((2-(4′-Fluoro-2′-(4-methyl-4H-1,2,4-triazol-3-yl)-[1,1′-biphenyl]-3-yl)-7-(trifluoromethyl)benzo[d]oxazol-5-yl)methyl)-1-methoxypropan-2-amine], the concentration giving a half-maximal response (EC50) in test [1] fell in the range of 200 to 1000 nM. The values for the IC50 in test [2] (read-out: TR-FRET hCbl-b IC50) and in test [3] (setting [4]) were under 200 nM and 200 to 1000 nM, respectively.

For the compound `Cn1cnnc1-c1cc(F)ccc1-c1cccc(-c2nc3cc(CNCC4(O)CCCC4)cc(C(F)(F)F)c3[nH]2)c1` [CJ-1, 1-((((2-(4′-Fluoro-2′-(4-methyl-4H-1,2,4-triazol-3-yl)-[1,1′-biphenyl]-3-yl)-7-(trifluoromethyl)-1H-benzo[d]imidazol-5-yl)methyl)amino)methyl)cyclopentan-1-ol], the EC50 in test [1] is under 200 nM. Further, the IC50 in test [2] (read-out: TR-FRET hCbl-b IC50) and in test [3] (setting [4]) was under 200 nM in each case.

As to `COC1(CN[C@@H](C)c2cc(F)c3oc(-c4cc(-c5ccc(F)cc5-c5nncn5C)cc(C5CC5)n4)nc3c2)CCC1` [AFS-2, [(1S)-1-(2-{6-Cyclopropyl-4-[4-fluoro-2-(4-methyl-1,2,4-triazol-3-yl)phenyl]pyridin-2-yl}-7-fluoro-1,3-benzoxazol-5-yl)ethyl][(1-methoxycyclobutyl)methyl]amine], the half-maximal effective concentration (EC50) in test [1] was in the range of 200 to 1000 nM. Besides, the half-inhibitory concentration (IC50) in test [2] (read-out: TR-FRET hCbl-b IC50) and in test [3] (setting [4]) was under 200 nM in each case.

Turning to `Cn1cnnc1-c1cc(F)ccc1-c1cccc(-c2nc3cc(CN[C@H]4CC[C@@H]4O)cc(C(F)(F)F)c3o2)c1` (single isomer, unassigned) [ADG-1], the EC50 in test [1] was under 200 nM. The 50% inhibitory concentration (IC50) in test [2] (read-out: TR-FRET hCbl-b IC50) and in test [3] (setting [4]) was under 200 nM in each case.

Take `COCCNCc1cc(OC)c2oc(-c3cccc(-c4ccc(F)cc4-c4nncn4C)c3)nc2c1` [EL-1, N-((2-(4′-Fluoro-2′-(4-methyl-4H-1,2,4-triazol-3-yl)-[1,1′-biphenyl]-3-yl)-7-methoxybenzo[d]oxazol-5-yl)methyl)-2-methoxyethan-1-amine]: the EC50 in test [1] lay in the range of 200 to 1000 nM. Also, the IC50 in test [2] (read-out: TR-FRET hCbl-b IC50) and in test [3] (setting [4]) was under 200 nM each time.

On to `COc1cc(CO)cc2nc(-c3cccc(-c4ccc(F)cc4-c4nncn4C)c3)oc12` [DW-3, (2-(4′-Fluoro-2′-(4-methyl-4H-1,2,4-triazol-3-yl)-[1,1′-biphenyl]-3-yl)-7-methoxybenzo[d]oxazol-5-yl)methanol], for which the concentration for a half-maximal effect (EC50) in test [1] fell in the range of 10000 to 50000 nM. Also, the IC50 in test [2] (read-out: TR-FRET hCbl-b IC50) and in test [3] (setting [4]) was 1000 to 10000 nM in each case.

As to `Cn1cnnc1-c1cc(F)ccc1-c1cccc(-c2cn3ccc(CN[C@@H]4CCC[C@@H]4O)cc3n2)c1` [GO-2, (1S,2R)-2-(((2-(4′-Fluoro-2′-(4-methyl-4H-1,2,4-triazol-3-yl)-[1,1′-biphenyl]-3-yl)imidazo[1,2-a]pyridin-7-yl)methyl)amino)cyclopentan-1-ol], the EC50 in test [1] was in the range of 200 to 1000 nM. Besides, the IC50 in test [2] (read-out: TR-FRET hCbl-b IC50) and in test [3] (setting [4]) was under 200 nM each time.

Consider `Cn1cnnc1-c1cc(F)ccc1-c1cc(-c2nc3cc(CN[C@@H]4CCC[C@@H]4O)cc(C(F)(F)F)c3[nH]2)nc(C2CC2)c1` [ADV-2, (1S,2R)-2-{[(2-{6-Cyclopropyl-4-[4-fluoro-2-(4-methyl-1,2,4-triazol-3-yl)phenyl]pyridin-2-yl}-7-(trifluoromethyl)-1H-1,3-benzodiazol-5-yl)methyl]amino}cyclopentan-1-ol], for which the EC50 in test [1] is under 200 nM. Moreover, the IC50 in test [2] (read-out: TR-FRET hCbl-b IC50) and in test [3] (setting [4]) was under 200 nM each time.

With `Cc1c(F)c(CO)cc2nc(-c3cc(-c4ccc(F)cc4-c4nncn4C)cc(C4CC4)n3)oc12` [AGP-7, (2-{6-Cyclopropyl-4-[4-fluoro-2-(4-methyl-1,2,4-triazol-3-yl)phenyl]pyridin-2-yl}-6-fluoro-7-methyl-1,3-benzoxazol-5-yl)methanol], in test [1], the EC50 was in the range of 1000 to 10000 nM. For the same compound, the IC50 in test [2] (read-out: TR-FRET hCbl-b IC50) lay in the range of 200 to 1000 nM; in test [3] (setting [4]), 1000 to 10000 nM.
